Results: patent publication US20100047332A1, “Treatments for burns using thyroid hormone compound in a human” (priority 2005, published 2010)

Tests used:
dermis and epidermis = settings: topical application, not intraperitoneal; cited from earlier work
heart wounds = settings: 500 ngs continuously, slow release pellet; cited from earlier work
burns = settings: small quantities in drinking water, excision and grafting, after 5 weeks; cited from earlier work
[1] = test system: wounds such as lacerations; assay: Lacerations treated with continuous topical T-3 or TriAc; assay type: in vivo, human; settings: continuous topical application, in approximately three days
[2] = test system: burned and blistered area of the right thigh; assay: Topical T-3 in Silvadene ointment on a burn
excisional wounds = settings: cited from earlier work
TSH = settings: topically applied, humans; cited from earlier work

Row | SMILES | growth of the dermis and epidermis (dermis and epidermis) | healing of heart wounds (heart wounds) | healing rate of burns (burns) | signs of inflammation [1] | cellular debris and signs of inflammation ([2]; T-3 1 mg in 30 ml Silvadene ointment, daily for two weeks) | appearance of the treated area ([2]; after 6 weeks) | healing of excisional non thermal wounds (excisional wounds; eurythroid mouse, daily) | wound healing (excisional wounds; intraperitoneal, hypothyroid mice) | effect on TSH levels or other thyroid hormone function tests (TSH)
1 | N[C@@H](Cc1cc(I)c(Oc2ccc(O)c(I)c2)c(I)c1)C(=O)O [T-3, 3,5,3′-triiodothyronine] | affect the growth of the dermis and epidermis | decreased healing of heart wounds | no change in the healing rate | increased signs of inflammation | more cellular debris and signs of inflammation | less reddened areas and had less discolored skin | accelerates the healing | improved wound healing | 
2 | N[C@@H](Cc1cc(I)c(Oc2cc(I)c(O)c(I)c2)c(I)c1)C(=O)O [T-4, thyroxine] |  |  |  |  |  |  |  |  | no effect on TSH levels
